Test system: Azotobacter chroococcum
Test: Growth of Azotobacter chroococcum with or without osmotic stress (0.3 M NaCl), glycine betaine versus extract
Format: cell-based
Conditions: for Bacterial concentration at 72 h / Survival rate relative to the strain under non-stressing conditions without addition of the extract / Survival rate relative to the strain under salt stress conditions, without addition of the extract: extract at 10 g of polyamines/kg of medium, glycine betaine quantity not given
Description: The effect of each of the extracts prepared according to example 1a), 1b) or 1c) was studied on the growth of various bacterial strains, under conditions with or without thermal stress, osmotic stress or acid/base stress. The extracts obtained in examples 1a), 1b) or 1c) were added to a culture medium in different quantities, in order to obtain the desired quantities of polyamines and/or tyramine.
The study was carried out in Spizizen Minimal Medium SMM culture broth ((NH4)2SO4: 2 g/L, K2HPO4: 14 g/L, KH2PO4: 6 g/L, MgSO4: 0.2 g/L, C6H5Na3O7·2H2O: 1 g/L, D-glucose: 5 g/L).
The starting inoculate for each strain was calibrated by OD measurement (620 nm) in order to obtain an initial concentration of approximately 10^3-10^4 CFU/mL. The strains were incubated for 24 to 72 h. Counts were performed in TSA agar (Tryptone Soya Agar) at TO and after 24 h, 48 h or 72 h incubation at 30° C. (+/−1° C.), according to the studied strains.
For each of the strains, the survival rate in the presence of the extract and/or stress was calculated relative to the bacterial concentration obtained at the end of the kinetics (at T=24 h, 48 h or 72 h) in the control mode containing the strain alone, under non-stressed conditions, without adding the extract. Similarly, the survival rate in the presence or absence of the extract and/or stress was calculated relative to the bacterial concentration obtained at the end of the kinetics in the mode containing the strain alone, under stress conditions, without adding the extract.
The strain Azotobacter chroococcum was tested under osmotic stress conditions, in other words by adding 0.3 M NaCl to the culture medium at time T=0.
The glycine betaine, known as an osmoprotectant, was tested in comparison with the Ascophyllum nodosum extract prepared according to example 1a).

[1] = non-stressing conditions (no NaCl), 72 h

## C[N+](C)(C)CC(=O)[O-] [glycine betaine]
[1]
  Bacterial concentration at 72 h: 1.1 · 10^8 CFU/mL
  Survival rate relative to the strain under non-stressing conditions without addition of the extract: 0.3 log
  Survival rate relative to the strain under salt stress conditions, without addition of the extract: 5.1 log
Osmotic stress 0.3 M NaCl
  stabilisation of Azotobacter chroococcum under osmotic stress: no stabilisation is observed
Salt stress 0.3 M NaCl, 72 h
  loss in the bacterial concentration after 72 h incubation relative to the stress conditions: 0.8 logs
  Bacterial concentration at 72 h: 1.4 · 10^2 CFU/mL
  Survival rate relative to the strain under non-stressing conditions without addition of the extract: −5.6 log
  Survival rate relative to the strain under salt stress conditions, without addition of the extract: −0.8 log

Source: US20230234897A1, “USE OF POLYAMINES, TYRAMINE AND/OR A PLANT EXTRACT CONTAINING SAME TO STABILISE MICROORGANISMS” (AGRO INNOVATION INTERNATIONAL, priority 2020, published 2023)
